Laboratory results taken from patent US11191840B2, “Compositions and methods relating to salts of specialized pro-resolving mediators” (Thetis Pharmaceuticals LLC, priority 2017, dated 2021).
Structures can show the parent of a compound that is named as a salt. Where two headings read alike, the source gives them in different places.

Experiments:
[1] = Chemical stability against degradation, HPLC, solid in open test tubes at room temperature; format: physicochemical; settings: open test tube, room temperature 68-72 F, relative humidity 20-40%
Description: The stability of selected SPMs and their ionic derivatives based on Formulas I and IV was evaluated. The parent SPM and its solid ionic derivative were place in open test tubes and maintained at room temperature between 68-72 F and relative humidity between 20-40% for 6 or 8 weeks. […] Briefly, HPLC analysis was performed on a PFP column (Poroshell 120, PFP, 4.6×150 mm, […], Agilent), mounted on a Gilson HPLC system equipped with an ELS detector. The mobile phase consisted of a gradient between solution A, water, and solution B, acetonitrile, both containing 0.1% trifluoroacetic acid. The gradient program was 30-80% with respect to solution B. The flow rate was 0.5 mL/min. The appearance of new HPLC peaks as compared to the baseline HPLC tracing at the initial time point is indicative of decomposition products and the lack of stability. The absence of such new HPLC peaks the subsequent time points is indicative of stability.

DSS-induced colitis = test: Sub-chronic two-cycle DSS colitis model, treatment from Day 20; format: in vivo, mouse; settings: for Colon Length / Disease Activity Index / Normalized Spleen Weight: Table 7, two cycles of DSS, once-daily oral gavage Day 20-27, 15 ug/day; for Reduction in DAI relative to Disease Control: 15 ug/day oral from Day 20
Description: (§1) In the study described in Example 17, a sub-chronic model was used to induce colitis in 8-week old C57B16/J mice by two cycles of DSS separated by a 10-day recovery period. Once-daily RvE1-Mg-di-lysinate treatment (15 ug/day) was initiated on Day 20, after DSS-induced colitis was established, and continued for 7 days via oral gavage, with mice sacrificed at the end of Day 27. This sub-chronic, 2-cycle DSS protocol was used to induce inflammation with an immunological profile that better models human IBD than a single cycle of DSS. Oh S Y et al. Comparison of experimental mouse models of inflammatory bowel disease. Int J Mol Med. 2014; 33(2):333-40. This experimental system also provides a representative model for treating patients with active disease where the therapeutic objective is induction of remission. This is important in human IBD because most patients have recurring disease flares. In addition, this study compared RvE1-Mg-di-lysinate to 5-aminosalicylate (5-ASA), which is used as standard-of-care first-line therapy for induction and maintenance of remission in ulcerative colitis and also for certain phenotypes of Crohn's Disease.
(§2) Disease activity was assessed daily using the same Disease Activity Index (DAI) that was used in Example 16. Following sacrifice, colons were excised, flushed with ice-cold PBS, their lengths were measured. Subsequently, H&E-stained colon tissue sections from each animal were also scored using an established scoring system of histopathological disease activity. See Dieleman L A, Palmen M J, Akol H, et al. Chronic experimental colitis induced by dextran sulphate sodium (DSS) is characterized by Th1 and Th2 cytokines. Clin Exp Immunol. 1998; 114(3):385-91.

[2] = test system: dextran sulfate sodium (DSS) mouse model of colitis; test: Dextran sulfate sodium (DSS) mouse model of colitis, acute, 7 days DSS; format: in vivo; settings: RvE1-Mg-di-lysinate 15 ug/day or equimolar RvE1; for Colon Length / Normalized Spleen Weight: at sacrifice after 7 days DSS, once-daily oral gavage; for Disease Activity Index: study day 7, 2% DSS in drinking water 7 days, once-daily oral gavage from day 0
Description: A representative compound of Formula IV, RvE1-Mg-di-lysinate, was tested for efficacy in the dextran sulfate sodium (DSS) mouse model of colitis. In this model system, DSS exposure disrupts intestinal barrier function, stimulating local inflammation and inducing a colitis phenotype that mimics the clinical and histopathological features of IBD. See e.g., Laroui H et al. Dextran sodium sulfate (DSS) induces colitis in mice by forming nano-lipocomplexes with medium-chain-length fatty acids in the colon. PLoS ONE. 2012; 7 (3):e32084.
In the present study, 8-week old male C57Bl/6J mice were randomized by weight to three experimental groups and administered 2% DSS (w/v) in drinking water for 7 days. Beginning on study day 0, animals were administered either RvE-Mg-di-lysinate (RvE-Mg-Lys), an equimolar dose of RvE1, or vehicle via once-daily oral gavage. Disease activity was assessed daily using an established Disease Activity Index (DAI). See e.g., Morin C, Blier P U, Fortin S. MAG-EPA reduces severity of DSS-induced colitis in rats. Am J Physiol Gastrointest Liver Physiol. 2016; 310 (10):G808-21. All animals were sacrificed after 7 days of DSS exposure and colons and spleens were harvested. Gross morphological markers of disease activity, including colon length and normalized spleen weight (mg per g body weight) were assessed.
The model system described in Example 16 represents an acute model of human IBD wherein once daily RvE1-Mg-di-lysinate treatment at a dose of 15 ug/day was used in a prophylactic mode to mitigate the onset of intestinal and systemic inflammation induced by administration of DSS. This is relevant to patients in need of maintenance therapy to prevent the recurrence of active disease.

[3] = Pharmacokinetic analysis of blood and colon tissue after intracolonic administration; format: in vivo; settings: mouse, 15 ug/day; for Tmax: read-out: RvE1 Tmax (converted)
Text: Pharmacokinetic analysis of blood and colon tissue samples were collected in the course of the intracolonic efficacy study and these confirmed that intracolonic administration of RvE1-Mg-di-lysinate is associated with predominantly local RvE1 exposure and minimal uptake into circulation.

[4] = test system: two-cycle DSS colitis model; test: Two-cycle DSS colitis model, intracolonic versus oral administration; format: in vivo, mouse; settings: 15 ug/d, Day 20-27
Text: To further test the biological effects on disease activity of luminal absorption of RvE1 administered orally in the form of RvE1-Mg-di-lysinate, we compared direct intracolonic administration (similar to an enema) with oral administration. Whereas we had previously established that oral administration of RvE1-Mg-di-lysinate results in systemic and local colonic exposure to RvE1, intracolonic administration results in predominantly local exposure. We again used the two-cycle DSS colitis model described above, with treatment initiated on Day 20 and continued for 7 days, with mice sacrificed at the end of Day 27. To facilitate intracolonic drug delivery, mice were anesthetized via exposure to 2-4% isoflurane gas. Intracolonic administration of RvE1-Mg-di-lysinate or vehicle was performed, with all animals inverted for 5 minutes following dose administration. Intracolonic administration of RvE1-Mg-di-lysinate was associated with a significant reduction in DAI (P<0.01), colon length (P<0.05), spleen weight (P<0.05) and histopathological disease activity (P<0.05).

[5] = Single oral dose pharmacokinetics: RvE1 exposure in blood plasma, small intestine tissue and colon tissue; format: in vivo, mouse; settings: for Timing of RvE1 Cmax: oral administration; for Cmax / Tmax / AUC(0-t): male, C57BL6/J, mouse, single oral dose 10 mg/kg RvE1-Mg-di-lysinate; for AUC(0-t): read-out: AUC0-8 of RvE1
Description: To establish the oral pharmacokinetics (PK) of RvE1-Mg-di-lysinate, a study was conducted to investigate RvE1 exposure in blood plasma, small intestine tissue, and colon tissue following a single oral dose of RvE1-Mg-di-lysinate (10 mg/kg) in 8-week old male C57BL6/J mice at various time points up to 8 hours post-dose. RvE1 levels were quantified in all tissue samples by HPLC-MS/MS. Pharmacokinetic curves for all tissue compartments are shown in FIG. 5 and a summary of pharmacokinetic metrics is shown in Table 9.

[6] = test system: two-cycle DSS colitis model; test: Two-cycle DSS colitis model, concomitant RvE1-Mg-di-lysinate and 5-ASA; format: in vivo, mouse; settings: once-daily, RvE1-Mg-Lys 1.5 ug/d, 5-ASA 625 ug/d, alone or combined; for Colon Length / Normalized Spleen Weight / Total Histopath Score: at sacrifice; for Disease Activity Index: terminal (Day 27)
Description: as §1, §2
In this study, we again used the two-cycle DSS colitis model described above, but with once-daily concomitant therapy of RvE1-Mg-di-lysinate (1.5 ug/day) and 5-ASA (625 ug/day). This co-therapy model was used because many patients that would be candidates for RvE1-Mg-di-lysinate treatment will likely continue taking 5-ASA, as this is common clinical practice even when patient are not well controlled on 5-ASA monotherapy.

[7] = at sacrifice Day 27, 15 ug/day oral, P<0.05
[8] = small intestine tissue, Small Intestine

## CC[C@@H](O)/C=C/C=C\C[C@@H](O)/C=C/C=C/C=C\[C@@H](O)CCCC(=O)O [RvE1 Ca di-lysinate, bis(RvE1) calcium L-lysinate salt]
[1]; 6 weeks
  Degradation products by HPLC (chemical stability): No additional peaks corresponding to degradation products were observed

## CC[C@@H](O)/C=C/C=C\C[C@@H](O)/C=C/C=C/C=C\[C@@H](O)CCCC(=O)O [RvE1, (5S,6Z,8E,10E,12R,14Z,16E,18R)-5,12,18-trihydroxyicosa-6,8,10,14,16-pentaenoic acid, reference compound]
DSS-induced colitis
  Colon Length: 75.2 ± 7.6 mm
  Disease Activity Index: 5.6 ± 1.1
  Normalized Spleen Weight: 3.9 ± 0.7 mg/g BW
[2]
  Colon Length: 75.2 ± 7.6 mm
  Normalized Spleen Weight: 3.9 ± 0.7 mg/g BW
  Disease Activity Index: 5.6 ± 1.1
[1]; 8 weeks
  Degradation products by HPLC (chemical stability): extensively degraded

## CC[C@@H](O)/C=C/C=C\C[C@@H](O)/C=C/C=C/C=C\[C@@H](O)CCCC(=O)O [RvE1-Mg-Lys, bis(RvE1) magnesium L-lysinate salt]
[3]; blood, read-out: Blood Cmax of RvE1
  Cmax: 0.48 ng/mL
[3]; blood
  Tmax: 15 min
[3]; colon tissue, read-out: Colon Cmax of RvE1
  Cmax: 2800 ng/g
[3]; colon
  Tmax: 15 min
[4]; Intracolonic
  Colon Length: 83.1 ± 5.4 mm
  Disease Activity Index: 2.6 ± 1.9
  Normalized Spleen Weight: 4.3 ± 0.9 mg/g BW
  Total Histopath Score: 15 ± 2.7
[4]; Oral
  Colon Length: 82.7 ± 5.6 mm
  Disease Activity Index: 2.6 ± 1.8
  Normalized Spleen Weight: 4.4 ± 1.4 mg/g BW
  Total Histopath Score: 15.9 ± 6.0
DSS-induced colitis; Day 21, P<0.01
  Reduction in DAI relative to Disease Control: 24%
DSS-induced colitis; Day 23, P<0.05
  Reduction in DAI relative to Disease Control: 18%
DSS-induced colitis
  Colon Length: 77.1 ± 7.8 mm
  Disease Activity Index: 4.8 ± 1.3
  Normalized Spleen Weight: 3.6 ± 0.9 mg/g BW
DSS-induced colitis; at sacrifice Day 27, 15 ug/day oral
  Histopathologic disease activity vs Disease Control (in words): non-significant reduction
DSS-induced colitis; [7]
  Colon length vs Disease Control (in words): statistically significant increase
  Normalized spleen weight vs Disease Control (in words): statistically significant reduction
DSS-induced colitis; study day 27, 15 ug/day oral Day 20-27
  DAI relative to vehicle control (in words): statistically significant reduction
[2]
  Colon Length: 77.1 ± 7.8 mm
  Normalized Spleen Weight: 3.6 ± 0.9 mg/g BW
  Disease Activity Index: 4.8 ± 1.3
[5]; colon tissue, 15 minutes after oral dose
  Share of total RvE1 detected in colon tissue contributed by the increase at the time of blood plasma Cmax: less than 2%
[5]; colon
  Timing of RvE1 Cmax: 4 h
[5]; colon tissue, Colon
  Cmax: 19.8 ng/mL
  Tmax: 240 min
  AUC(0-t): 72.9 ng·h/mL
[5]; plasma, Blood
  Cmax: 471 ng/mL
  Tmax: 15 min
  AUC(0-t): 128 ng·h/mL
[5]; [8]
  Cmax: 346 ng/mL
  Tmax: 120 min
  AUC(0-t): 533 ng·h/mL
[5]; small intestine
  Timing of RvE1 Cmax: 2 h
[1]; 8 weeks, listed as RvE1 Mg di-lysinate
  Degradation products by HPLC (chemical stability): did not exhibit any degradation products
[6]
  Colon Length: 77.3 ± 3 mm
  Normalized Spleen Weight: 6.6 ± 0.5 mg/g BW
  Total Histopath Score: 17.6 ± 2.7
  Disease Activity Index: 3.7 ± 1.6

## Nc1ccc(O)c(C(=O)O)c1 [Compound 5-ASA, 5-aminosalicylate, reference compound]
[6]
  Colon Length: 78.7 ± 6.7 mm
  Normalized Spleen Weight: 4.1 ± 1.3 mg/g BW
  Total Histopath Score: 16 ± 3.8
  Disease Activity Index: 3.3 ± 0.8

## CC[C@@H](O)/C=C/C=C\C[C@@H](O)/C=C/C=C/C=C\[C@@H](O)CCCC(=O)O [RvE1 lys lys, RvE1 (L,L)-lysyllysine salt]
[1]; 8 weeks
  Degradation products by HPLC (chemical stability): without degradation products
